Patent publication EP4782445A1, “CDK KINASE INHIBITOR AND USE THEREOF” (Abbisko Therapeutics Co., Ltd., priority 2023, dated 2025)

Key:
[1] = molecular target: T1, CDK2/cyclin E1 (Homo sapiens, UniProt P24941); test: In vitro biochemical kinase activity assay for CDK2/cyclin E1 (HTRF); conditions: 1 µM ATP
T1 construct: purchased Carna
Procedure: I. In Vitro Biochemical Kinase Activity Assay for CDK2/Cyclin E1
The inhibitory effects of the compounds of the present invention on CDK2/cyclin E1 kinase activity were determined using a homogeneous time-resolved fluorescence (HTRF) assay. The experimental process was as follows: • 1. The kinase reaction was carried out in a 384-well plate. 15 nM CDK2/cyclin E1 kinase (Carna), 1 µM ATP, and 1 µM biotin-labeled substrate protein ATF2-biotin (Cisbio) were incubated at room temperature for 90 min in a buffer system composed of 10 mM MgCl2, 1 mM MnCl2, 1 mM DTT, and basal kinase buffer (Cisbio). • 2. The detection solution (Cisbio, containing reagents that specifically recognize phosphorylated ATF2 and ATF2-biotin proteins, respectively) was added. The plate was then sealed with a film (to protect from light and volatilization) and incubated at 25°C for 60 min. • 3. The plate was transferred to an Envision plate reader to detect fluorescence resonance energy transfer (FRET) signals. (The 665/615 ratio was calculated by reading the emission at 665 nm and 615 nM, respectively.) • 4. The IC50 values were determined by analyzing the inhibition at varying compound concentrations using Model 205 in the XLfit software.

[2] = molecular target: T2, CDK4/cyclin D3 (Homo sapiens, UniProt P11802); test: In vitro biochemical kinase activity assay for CDK4/cyclin D3 (HTRF); conditions: unmarked data: 80 µM ATP in Step 1
T2 construct: purchased Carna
T2 sequence (P11802 whole entry): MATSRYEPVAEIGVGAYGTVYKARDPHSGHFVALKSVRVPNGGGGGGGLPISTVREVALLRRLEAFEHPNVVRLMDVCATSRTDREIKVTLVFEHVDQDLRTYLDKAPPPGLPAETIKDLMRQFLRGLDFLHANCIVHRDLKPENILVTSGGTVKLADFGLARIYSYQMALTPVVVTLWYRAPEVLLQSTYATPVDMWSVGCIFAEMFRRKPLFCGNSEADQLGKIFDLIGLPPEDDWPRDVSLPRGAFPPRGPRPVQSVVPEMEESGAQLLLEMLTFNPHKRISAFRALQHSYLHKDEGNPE
T2 sequence (P30281 whole entry partner): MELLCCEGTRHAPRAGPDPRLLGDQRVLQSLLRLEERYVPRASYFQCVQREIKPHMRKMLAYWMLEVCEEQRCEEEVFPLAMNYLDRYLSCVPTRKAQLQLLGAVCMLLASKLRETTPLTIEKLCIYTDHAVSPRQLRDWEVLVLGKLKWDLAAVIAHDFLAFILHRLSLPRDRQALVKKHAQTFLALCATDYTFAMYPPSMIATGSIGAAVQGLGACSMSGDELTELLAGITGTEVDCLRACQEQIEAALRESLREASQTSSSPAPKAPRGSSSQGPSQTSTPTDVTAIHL
Summary of the method: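 HTRF kinase reaction: 4.9 nM CDK4/cyclin D3, 1 mM (or 80 µM) ATP and 0.3 µM Rb-biotin substrate, 90 min at 30°C in buffer with 50 mM MgCl2 and 1 mM DTT.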

[3] = molecular target: T3, CDK6/cyclin D3 (Homo sapiens, UniProt Q00534); test: In vitro biochemical kinase activity assay for CDK6/cyclin D3 (HTRF); conditions: unmarked data: 100 µM ATP in Step 1
T3 construct: purchased Carna
T3 sequence (Q00534 whole entry): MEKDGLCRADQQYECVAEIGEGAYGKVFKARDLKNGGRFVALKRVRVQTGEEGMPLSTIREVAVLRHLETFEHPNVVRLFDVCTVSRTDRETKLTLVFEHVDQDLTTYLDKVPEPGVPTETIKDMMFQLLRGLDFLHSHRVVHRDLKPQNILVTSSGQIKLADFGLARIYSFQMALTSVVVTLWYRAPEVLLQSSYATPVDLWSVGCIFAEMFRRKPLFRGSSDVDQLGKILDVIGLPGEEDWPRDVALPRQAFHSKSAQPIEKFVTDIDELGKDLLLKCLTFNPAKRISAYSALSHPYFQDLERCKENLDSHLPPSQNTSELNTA
T3 sequence (P30281 whole entry partner): as the sequence (P30281 whole entry partner) above
Summary of the method: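 HTRF assay: 0.02 nM CDK6/cyclin D3 incubated with 1 mM (or 100 µM) ATP and 0.3 µM Rb-biotin substrate at 30°C for 60 min in kinase buffer with 5 mM MgCl2 and 1 mM DTT.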

SMILES	IC50 [1]	IC50 [2]	IC50 [3]
CC(C)n1c(C#Cc2cc(N[C@@H]3CCOC[C@H]3O)ncc2Cl)cnc1CN1CCC[C@H](O)C1 [Example 109, (S)-1-((5-((5-chloro-2-(((3 S,4R)-3-hydroxytetrahydro-2H-pyran-4-yl)amino)pyridin-4-yl)ethynyl)-1-isopropyl-1H-imidazol-2-yl)methyl)piperidin-3-ol]	3190 nM	4.5 nM	223 nM
CC(=O)c1ncc(C#Cc2nc(N[C@@H]3CCOC[C@H]3O)ncc2Cl)n1C(C)C [Example 52, 1-(5-((5-chloro-2-(((3 S,4R)-3-hydroxytetrahydro-2H-pyran-4-yl)amino)pyrimidin-4-yl)ethynyl)-1-isopropyl-1H-imidazol-2-yl)ethan-1-one]	2930 nM	6.22 nM	24.2 nM
CC(C)n1c(C#Cc2nc(N[C@@H]3COC[C@H]3O)ncc2Cl)cnc1C(C)(C)O [Example 53, (3 S,4R)-4-((5-chloro-4-((2-(2-hydroxypropan-2-yl)-1-isopropyl-1H-imidazol-5-yl)ethynyl)pyrimidin-2-yl)amino)tetrahydrofuran-3-ol]	493 nM	60.9 nM	192 nM
CC(C)n1c(C#Cc2nc(N[C@@H]3CCOC[C@H]3O)ncc2Cl)cnc1[C@@H](C)O [Example 31, (3 S,4R)-4-((5-chloro-4-((2-((R)-1-hydroxyethyl)-1-isopropyl-1H-imidazol-5-yl)ethynyl)pyrimidin-2-yl)amino)tetrahydro-2H-pyran-3-ol]	590 nM	7.85 nM	47.1 nM
